From BindingDB's records for doi:10.1016/j.jmb.2004.09.032 (Celera, 2004)
Several values for one entry are separate records, joined by “and”; a condition that tells them apart may be missing. Equal entries are not always repeated.

How the values were obtained:
Assay in all cases: Enzyme Assay and Determination of the Inhibition Constants
[1] = target: Urokinase-type plasminogen activator (Homo sapiens, UniProt P00749)
Method: (§1) Each enzyme was assayed with a set of different concentrations of each inhibitor. […] Ki(apparent) values were calculated from enzyme velocity curves using the software package BatchKi (BioKin Ltd, Madison, WI). These apparent inhibition constants were then converted to Ki values by assuming competitive inhibition and using the formula Ki = Ki(apparent)/(1 + S/Km).

Serine protease hepsin = Serine protease hepsin (Homo sapiens, UniProt P05981)
Method: as §1

Plasminogen = Plasminogen (Homo sapiens, UniProt P00747); conditions: pH 7.4; 22 °C
Method: as §1

[2] = target: Tissue-type plasminogen activator (Homo sapiens, UniProt P00750)
Method: as §1

Serine protease 1 = Serine protease 1 (Homo sapiens, UniProt P07477); conditions: pH 7.4; 22 °C
Method: as §1

Coagulation factor X = Coagulation factor X (Homo sapiens, UniProt P00742)
Method: as §1

Prothrombin = Prothrombin (Homo sapiens, UniProt P00734)
Method: as §1

[3] = target: T1, Urokinase-type plasminogen activator [179-431,I214M,N322A,S371A] (Homo sapiens, UniProt P00749, I214M/N322A/S371A)
T1 construct: 179-431
Method: as §1

Tryptase beta-2 = Tryptase beta-2 (Homo sapiens, UniProt P20231)
Chain of Tryptase beta-2 (P20231 as listed by the source): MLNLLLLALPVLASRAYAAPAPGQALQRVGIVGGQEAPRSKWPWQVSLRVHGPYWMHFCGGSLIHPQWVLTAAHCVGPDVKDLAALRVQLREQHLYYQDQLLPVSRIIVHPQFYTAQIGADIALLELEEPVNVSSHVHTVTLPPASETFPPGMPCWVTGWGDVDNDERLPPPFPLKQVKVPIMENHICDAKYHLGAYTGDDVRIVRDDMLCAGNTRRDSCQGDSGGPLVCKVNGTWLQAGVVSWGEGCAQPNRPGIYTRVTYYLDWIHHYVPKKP
Method: as §1

Chain of Coagulation factor X (P00742 41-179 limits assumed): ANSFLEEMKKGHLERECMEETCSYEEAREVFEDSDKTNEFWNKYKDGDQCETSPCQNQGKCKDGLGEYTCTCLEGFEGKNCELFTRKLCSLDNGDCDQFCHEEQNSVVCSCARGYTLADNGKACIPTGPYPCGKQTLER
Chain of Coagulation factor X (P00742 235-488 limits assumed): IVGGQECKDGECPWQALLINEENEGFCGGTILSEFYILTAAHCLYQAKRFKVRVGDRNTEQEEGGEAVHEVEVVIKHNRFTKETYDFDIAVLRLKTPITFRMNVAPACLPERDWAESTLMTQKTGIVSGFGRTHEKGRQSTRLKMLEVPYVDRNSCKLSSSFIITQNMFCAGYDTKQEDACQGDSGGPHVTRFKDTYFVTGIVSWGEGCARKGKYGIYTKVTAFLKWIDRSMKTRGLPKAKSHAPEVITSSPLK
Chain of Serine protease hepsin (P05981 1-162 limits assumed): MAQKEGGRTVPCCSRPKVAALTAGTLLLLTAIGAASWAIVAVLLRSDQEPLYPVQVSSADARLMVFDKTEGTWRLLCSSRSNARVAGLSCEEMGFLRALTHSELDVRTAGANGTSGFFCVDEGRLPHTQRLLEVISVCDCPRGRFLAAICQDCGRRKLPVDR
Chain of Serine protease hepsin (P05981 163-417 limits assumed): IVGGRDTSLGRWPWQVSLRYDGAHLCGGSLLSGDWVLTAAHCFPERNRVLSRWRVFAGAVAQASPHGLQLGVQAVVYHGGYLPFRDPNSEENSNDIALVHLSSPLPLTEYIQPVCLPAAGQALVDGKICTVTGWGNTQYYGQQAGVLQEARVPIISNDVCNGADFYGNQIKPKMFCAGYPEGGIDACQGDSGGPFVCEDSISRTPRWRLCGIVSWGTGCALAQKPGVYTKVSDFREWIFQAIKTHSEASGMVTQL
Chain of Tissue-type plasminogen activator (P00750 whole entry): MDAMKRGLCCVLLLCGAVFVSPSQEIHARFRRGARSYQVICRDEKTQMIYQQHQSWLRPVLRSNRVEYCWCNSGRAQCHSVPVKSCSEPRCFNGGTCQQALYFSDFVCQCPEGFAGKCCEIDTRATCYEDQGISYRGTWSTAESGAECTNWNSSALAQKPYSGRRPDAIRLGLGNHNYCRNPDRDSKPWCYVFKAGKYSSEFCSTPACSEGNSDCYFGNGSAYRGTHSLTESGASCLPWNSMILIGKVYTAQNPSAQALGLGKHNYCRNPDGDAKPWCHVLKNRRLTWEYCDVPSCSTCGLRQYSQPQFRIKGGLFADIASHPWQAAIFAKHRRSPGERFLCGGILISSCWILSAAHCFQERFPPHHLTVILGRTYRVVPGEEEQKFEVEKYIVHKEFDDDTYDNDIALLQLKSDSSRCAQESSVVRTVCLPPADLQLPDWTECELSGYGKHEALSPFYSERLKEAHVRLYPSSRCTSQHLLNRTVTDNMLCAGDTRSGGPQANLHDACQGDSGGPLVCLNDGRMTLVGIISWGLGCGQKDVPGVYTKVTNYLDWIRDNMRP
Chain of Serine protease 1 (P07477 whole entry): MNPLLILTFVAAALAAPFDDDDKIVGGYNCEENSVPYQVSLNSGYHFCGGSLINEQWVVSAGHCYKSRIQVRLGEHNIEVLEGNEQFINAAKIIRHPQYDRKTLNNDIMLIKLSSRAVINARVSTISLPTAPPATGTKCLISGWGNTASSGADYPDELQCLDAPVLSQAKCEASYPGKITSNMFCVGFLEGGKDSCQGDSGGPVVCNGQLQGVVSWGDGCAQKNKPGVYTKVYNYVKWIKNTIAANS
Chain of Plasminogen (P00747 97-580 limits assumed): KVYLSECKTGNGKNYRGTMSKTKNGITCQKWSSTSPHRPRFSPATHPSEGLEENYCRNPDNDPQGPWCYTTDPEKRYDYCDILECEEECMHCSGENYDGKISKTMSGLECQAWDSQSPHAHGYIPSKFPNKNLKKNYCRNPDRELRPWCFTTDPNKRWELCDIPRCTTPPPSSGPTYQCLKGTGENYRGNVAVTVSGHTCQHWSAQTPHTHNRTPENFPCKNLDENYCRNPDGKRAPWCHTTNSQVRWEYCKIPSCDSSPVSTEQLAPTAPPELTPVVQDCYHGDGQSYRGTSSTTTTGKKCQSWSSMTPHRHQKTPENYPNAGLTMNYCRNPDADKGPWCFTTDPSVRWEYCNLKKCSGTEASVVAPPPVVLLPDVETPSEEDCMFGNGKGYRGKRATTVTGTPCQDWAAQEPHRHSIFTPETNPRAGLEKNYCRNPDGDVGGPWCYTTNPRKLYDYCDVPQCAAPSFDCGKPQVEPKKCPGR
Chain of Plasminogen (P00747 581-810 limits assumed): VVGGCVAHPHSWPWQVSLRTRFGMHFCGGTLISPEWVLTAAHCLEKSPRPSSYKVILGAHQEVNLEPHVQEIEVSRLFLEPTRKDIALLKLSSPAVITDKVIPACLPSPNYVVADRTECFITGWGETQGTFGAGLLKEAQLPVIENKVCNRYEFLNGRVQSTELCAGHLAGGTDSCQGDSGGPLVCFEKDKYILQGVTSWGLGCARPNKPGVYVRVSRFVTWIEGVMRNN

Structure (SMILES) | Ki [1] | Ki (Serine protease hepsin) [µM] | Ki (Plasminogen) [µM] | Ki [2] [µM] | Ki (Serine protease 1) [µM] | Ki (Coagulation factor X) [µM] | Ki (Prothrombin) [µM] | Ki [3] [µM] | Ki (Tryptase beta-2) [µM]
Nc1nc2cc(NC(=O)c3cccc(-c4ccccc4)c3O)ccc2[nH]1 [2-amino-5-[(2-hydroxy-3-phenylbenzene)amido]-1H-1,3-benzodiazol-3-ium] | 4.1 µM | > 75 | > 75 | 270 | 130 | > 450 | > 450 |  | 
Nc1nc2cc(NC(=O)c3cc4ccccc4cc3O)ccc2[nH]1 [2-amino-5-[(3-hydroxynaphthalene-2-)amido]-1H-1,3-benzodiazol-3-ium] | 4.6 µM and 4.5 µM | 2.1 | > 75 | > 450 | 37 | 200 | > 450 | 42 | 
CC(C)COc1cccc(-c2nc3ccc(C(=N)N)cc3[nH]2)c1O [2-{5-[amino(iminiumyl)methyl]-1H-1,3-benzodiazol-2-yl}-6-(2-methylpropoxy)benzen-1-olate] | 0.19 µM |  |  |  |  |  |  | 3.9 | 
N=C(N)c1cc2nc(-c3cccc(-c4ccccc4)c3O)[nH]c2cc1F [2-{5-[amino(iminiumyl)methyl]-6-fluoro-1H-1,3-benzodiazol-2-yl}-6-phenylbenzen-1-olate] | 0.37 µM |  |  |  | 10 |  |  | 39 | 4.7
C[C@H]1CCCC[C@@H]1Oc1cccc(-c2nc3cc(C(=N)N)c(F)cc3[nH]2)c1O [2-{5-[amino(iminiumyl)methyl]-6-fluoro-1H-1,3-benzodiazol-2-yl}-6-{[(1S,2S)-2-methylcyclohexyl]oxy}benzen-1-olate] |  |  |  |  |  |  |  |  | 2.5
NC(N)=Nc1ccc(NC(=O)c2cc3ccccc3cc2O)cc1 [[amino({4-[(3-hydroxynaphthalene-2-)amido]phenyl}amino)methylidene]azanium] | 0.62 µM and 0.39 µM | 2.6 | 130 | 670 | 16 | > 450 | 290 | 10 | 2
NC(N)=Nc1ccc(NC(=O)c2cc3ccccc3c(O)c2O)cn1 [[amino({5-[(3,4-dihydroxynaphthalene-2-)amido]pyridin-2-yl}amino)methylidene]azanium] | 0.017 µM and 0.041 µM |  | 4 |  | 42 | 80 | > 450 | 0.28 | 
N=C(N)Nc1ccc(NC(=O)c2cc3ccccc3cc2O)cn1 [[amino({5-[(3-hydroxynaphthalene-2-)amido]pyridin-2-yl}amino)methylidene]azanium] | 0.1 µM and 0.2 µM |  | 130 | 180 | 9.6 | 70 | 54 | 1.1 | 0.87

Now from value to compound:

Ki [1] | Ki (Serine protease hepsin) [µM] | Ki (Plasminogen) [µM] | Ki [2] [µM] | Ki (Serine protease 1) [µM] | Ki (Coagulation factor X) [µM] | Ki (Prothrombin) [µM] | Ki [3] [µM] | Ki (Tryptase beta-2) [µM] | Structure (SMILES)
0.19 µM |  |  |  |  |  |  | 4.4 |  | N=C(N)c1ccc2nc(-c3cccc(OC4CCCC4)c3O)[nH]c2c1 [CA-06]
0.15 µM |  |  |  |  |  |  | 23 |  | CC(C)COc1cccc(-c2nc3cc(F)c(C(=N)N)cc3[nH]2)c1O [CA-10]
0.033 µM | 0.085 |  |  |  |  |  |  |  | N=C(N)c1ccc2[nH]c(-c3cccc(-c4ccccc4)c3O)cc2c1 [CRA-8696]
